These results are taken from ChEMBL document CHEMBL1134931, “Aminoalkoxybiphenylnitriles as histamine-3 receptor ligands” (Bioorg Med Chem Lett, 2002).

In experiment [1] the target is T1, Histamine H2 receptor (Homo sapiens, UniProt P25021). As to the kind of experiment: Binding affinity to the human cortical histamine H2 receptor.
Experiment [2] concerns the target T2, Histamine H3 receptor (Homo sapiens, UniProt Q9Y5N1). As to the kind of experiment: Binding affinity at human cloned Histamine H3 receptor.
In experiment [3] the target is T3, Histamine H3 receptor (Rattus norvegicus, UniProt Q9QYN8). In words: Binding affinity at rat cortical Histamine H3 receptor.
Experiment [4] has as its target T4, Histamine H1 receptor (Homo sapiens, UniProt P35367). As to the kind of experiment: Binding affinity of human cortical histamine H1 receptor.
The target of experiment [5] is T1, Histamine H2 receptor. In words: Binding affinity at human cortical Histamine 2 receptor.
The target of experiment [6] is T4, Histamine H1 receptor. As to the kind of experiment: Binding affinity at human cortical Histamine 1 receptor.
Experiment [7] addresses T3, Histamine H3 receptor. In words: Binding affinity at rat cortical Histamine 3 receptor.
Experiment [8] has as its target T2, Histamine H3 receptor. In words: Binding affinity at human cloned Histamine 3 receptor.

T1 sequence (P25021 whole entry): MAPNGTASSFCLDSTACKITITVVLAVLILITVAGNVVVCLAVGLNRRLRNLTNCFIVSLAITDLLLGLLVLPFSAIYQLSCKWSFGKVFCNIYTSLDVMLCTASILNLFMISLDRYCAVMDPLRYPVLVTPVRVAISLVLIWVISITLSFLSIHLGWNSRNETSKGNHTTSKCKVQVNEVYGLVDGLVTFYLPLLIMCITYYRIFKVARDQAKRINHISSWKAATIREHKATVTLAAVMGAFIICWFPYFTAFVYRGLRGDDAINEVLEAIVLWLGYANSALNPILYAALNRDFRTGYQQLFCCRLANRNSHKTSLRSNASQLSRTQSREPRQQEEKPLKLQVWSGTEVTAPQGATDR
T3 sequence (Q9QYN8 whole entry): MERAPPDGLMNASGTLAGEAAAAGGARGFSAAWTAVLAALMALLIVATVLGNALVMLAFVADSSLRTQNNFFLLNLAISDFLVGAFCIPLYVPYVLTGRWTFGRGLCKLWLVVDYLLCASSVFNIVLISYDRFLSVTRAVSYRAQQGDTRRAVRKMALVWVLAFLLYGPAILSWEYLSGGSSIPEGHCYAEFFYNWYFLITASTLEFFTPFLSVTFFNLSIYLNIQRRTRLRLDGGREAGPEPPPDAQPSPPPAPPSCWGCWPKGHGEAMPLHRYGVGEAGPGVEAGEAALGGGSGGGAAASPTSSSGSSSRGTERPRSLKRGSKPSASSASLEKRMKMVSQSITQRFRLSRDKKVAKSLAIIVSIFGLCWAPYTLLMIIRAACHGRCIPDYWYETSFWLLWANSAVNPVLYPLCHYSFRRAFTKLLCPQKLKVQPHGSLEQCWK
T4 sequence (P35367 whole entry): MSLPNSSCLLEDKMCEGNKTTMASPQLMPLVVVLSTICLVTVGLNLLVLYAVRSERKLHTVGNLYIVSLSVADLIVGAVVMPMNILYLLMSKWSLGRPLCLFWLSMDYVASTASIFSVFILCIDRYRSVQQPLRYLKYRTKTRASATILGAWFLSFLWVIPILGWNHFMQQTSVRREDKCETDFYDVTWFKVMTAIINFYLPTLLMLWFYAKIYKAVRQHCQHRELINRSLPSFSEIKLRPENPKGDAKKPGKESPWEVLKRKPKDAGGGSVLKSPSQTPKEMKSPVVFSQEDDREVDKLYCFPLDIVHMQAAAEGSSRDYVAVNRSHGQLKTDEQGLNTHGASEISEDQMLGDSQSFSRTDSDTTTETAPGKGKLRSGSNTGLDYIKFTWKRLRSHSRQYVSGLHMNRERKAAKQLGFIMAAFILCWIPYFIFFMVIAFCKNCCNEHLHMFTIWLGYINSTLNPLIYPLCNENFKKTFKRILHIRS
T2 sequence (Q9Y5N1 whole entry): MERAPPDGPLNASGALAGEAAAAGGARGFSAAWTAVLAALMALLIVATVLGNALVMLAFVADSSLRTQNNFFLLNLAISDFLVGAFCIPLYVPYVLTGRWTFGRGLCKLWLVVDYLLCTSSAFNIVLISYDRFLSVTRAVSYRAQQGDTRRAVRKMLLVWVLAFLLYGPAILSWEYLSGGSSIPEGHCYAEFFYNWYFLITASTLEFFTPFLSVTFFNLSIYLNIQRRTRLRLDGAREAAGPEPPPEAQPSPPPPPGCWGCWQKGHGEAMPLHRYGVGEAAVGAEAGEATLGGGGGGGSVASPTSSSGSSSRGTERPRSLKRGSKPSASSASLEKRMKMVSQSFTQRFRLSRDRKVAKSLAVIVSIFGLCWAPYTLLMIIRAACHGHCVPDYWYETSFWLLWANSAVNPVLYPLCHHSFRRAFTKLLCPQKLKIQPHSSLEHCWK

For `CCOC(=O)N1CCN(CCCOc2ccc(-c3cc[nH]c3)cc2)CC1`, the inhibitory constant (Ki) (in general, a dissociation constant, usually derived from enzyme kinetics or from competition with a known ligand) in experiment [1] was 12900 nM; in experiment [2] it was 1000 nM; in experiment [3], 56.2 nM; in experiment [4] it was 501 nM.
`N#Cc1ccc(-c2ccc(OCCCN3CCC(O)CC3)cc2)cc1`: the Ki in experiment [1] is 10000 nM; in experiment [2], 123 nM; in experiment [3] it was 31.6 nM; in experiment [4], 575 nM.
On to `N#Cc1ccc(-c2ccc(OCCCN3CCC(N)CC3)cc2)cc1`, for which the inhibition constant (Ki) in experiment [5] is 33900 nM; in experiment [6], 3550 nM; in experiment [7], 129 nM; in experiment [8], 200 nM.
With `CC1CCCCN1CCCOc1ccc(-c2ccc(C#N)cc2)cc1` (stereo not given), the Ki in experiment [1] is 18600 nM; in experiment [2], 7.08 nM; in experiment [3], 22.9 nM; in experiment [4], 3470 nM.
With `N#Cc1ccc(-c2ccc(OCCCN3CC[C@@H](O)C3)cc2)cc1`, the Ki is 17000 nM in experiment [5], 4470 nM in experiment [6] and 8.32 nM in experiment [8].
Take `CCOC(=O)N1CCN(CCCOc2ccc(-c3c[nH]cn3)cc2)CC1`: the Ki is 69200 nM in experiment [1], 871 nM in experiment [3] and 1480 nM in experiment [4].
Consider `N#Cc1ccc(-c2ccc(OCCCN3CC[C@@H](N)C3)cc2)cc1`, for which the Ki in experiment [5] was 7410 nM; in experiment [6], 13800 nM; in experiment [7], 63.1 nM; in experiment [8], 6.17 nM.
In the case of `CCOC(=O)N1CCN(CCCOc2ccc(-c3cccc(C#N)c3)cc2)CC1`, the Ki in experiment [5] was 24000 nM; in experiment [6] it was 380 nM.
For `CCOC(=O)N1CCN(CCCOc2ccc(-c3ccc(Cl)cc3)cc2)CC1`, the inhibition constant (Ki) is 5620 nM in experiment [5], 355 nM in experiment [6] and 191 nM in experiment [7].
Turning to `CCOC(=O)N1CCN(CCCOc2ccc(-c3ccc(OC)cc3)cc2)CC1`, the inhibition constant Ki in experiment [1] is 100000 nM; in experiment [4], 355 nM.
Take `CC1CCCC(C)N1CCCOc1ccc(-c2ccc(C#N)cc2)cc1` (stereo not given): the inhibitory constant (Ki) is 24000 nM in experiment [1], 2.14 nM in experiment [2], 16.2 nM in experiment [3] and 3980 nM in experiment [4].
As for `CCOC(=O)N1CCN(CCCOc2ccc(-c3ccsc3)cc2)CC1`, the Ki was 97700 nM in experiment [1], 209 nM in experiment [3] and 759 nM in experiment [4].
For the compound `N#Cc1ccc(-c2ccc(OCCCN3CCNCC3)cc2)cc1`, the inhibition constant (Ki) was 22900 nM in experiment [1], 117 nM in experiment [2], 589 nM in experiment [3] and 8910 nM in experiment [4].
As to `CCOC(=O)N1CCN(CCCOc2ccc(-c3ccc(C#N)cc3C)cc2)CC1`, the results for the Ki in experiment [1], in experiment [3] and in experiment [4] were 3980 nM, 102 nM and 27.5 nM, respectively.
For the compound `C[C@@H]1CC[C@@H](C)N1CCCOc1ccc(-c2ccc(C#N)cc2)cc1`, the Ki was 9120 nM in experiment [1], 0.676 nM in experiment [2], 6.46 nM in experiment [3] and 562 nM in experiment [4].
On to `CCOC(=O)N1CCN(CCCOc2ccc(-c3ccccc3[N+](=O)[O-])cc2)CC1`, for which the Ki in experiment [5] was 7590 nM; in experiment [6] it was 162 nM; in experiment [7], 617 nM.
Consider `N#Cc1ccc(-c2ccc(OCCCN3CCCNCC3)cc2)cc1`, for which the inhibition constant (Ki) was 7760 nM in experiment [1], 8.32 nM in experiment [2], 13.5 nM in experiment [3] and 3890 nM in experiment [4].
With `N#Cc1ccc(-c2ccc(OCCCN3CCOCC3)cc2)cc1`, the inhibition constant Ki in experiment [1] is 38000 nM; in experiment [2], 36.3 nM; in experiment [3], 25.1 nM; in experiment [4] it was 3240 nM.
In the case of `CN[C@@H]1CCN(CCCOc2ccc(-c3ccc(C#N)cc3)cc2)C1`, the Ki in experiment [1] is 10000 nM; in experiment [2], 8.51 nM; in experiment [4], 3720 nM.
For the compound `N#Cc1ccc(-c2ccc(OCCCN3CCCC(O)C3)cc2)cc1` (stereo not given), the Ki in experiment [1] is 12900 nM; in experiment [2], 30.2 nM; in experiment [3] it was 81.3 nM; in experiment [4], 7760 nM.
For `CCOC(=O)N1CCN(CCCOc2ccc(-c3cccs3)cc2)CC1`, the Ki in experiment [1] was 33100 nM; in experiment [3], 229 nM; in experiment [4] it was 447 nM.
Regarding `C[C@@]1(O)CCN(CCCOc2ccc(-c3ccc(C#N)cc3)cc2)C1`, the inhibition constant (Ki) in experiment [1] was 15100 nM; in experiment [2] it was 4.07 nM; in experiment [3], 15.5 nM; in experiment [4], 3890 nM.
On to `N#Cc1ccc(-c2ccc(OCCCN3CCCC3)cc2)cc1`, for which the Ki in experiment [5] was 67600 nM; in experiment [6], 5010 nM; in experiment [7], 41.7 nM; in experiment [8] it was 7.24 nM.
`CCOC(=O)N1CCN(CCCOc2ccc(-c3ccc(Br)cc3)cc2)CC1`: the Ki was 1660 nM in experiment [1], 112 nM in experiment [3] and 182 nM in experiment [4].
As for `CCOC(=O)N1CCN(CCCOc2ccc(-c3ccc([N+](=O)[O-])cc3)cc2)CC1`, the results for the inhibitory constant (Ki) in experiment [5], in experiment [6] and in experiment [7] were 8320 nM, 81.3 nM and 97.7 nM, respectively.
Consider `N#Cc1ccc(-c2ccc(OCCCN3CC[C@H](O)C3)cc2)cc1`, for which the Ki is 19100 nM in experiment [5], 5620 nM in experiment [6], 126 nM in experiment [7] and 19.5 nM in experiment [8].
Take `CN(C)[C@@H]1CCN(CCCOc2ccc(-c3ccc(C#N)cc3)cc2)C1`: the inhibition constant (Ki) in experiment [1] is 10000 nM; in experiment [2] it was 2.75 nM; in experiment [3], 13.5 nM; in experiment [4], 1910 nM.
`CCOC(=O)N1CCN(CCCOc2ccc(-c3ccc(C#N)cc3)cc2)CC1`: the Ki was 28800 nM in experiment [1], 1000 nM in experiment [2], 28.2 nM in experiment [3] and 158 nM in experiment [4].
As for `CC1CCCN(CCCOc2ccc(-c3ccc(C#N)cc3)cc2)C1` (stereo not given), the Ki in experiment [1] is 11700 nM; in experiment [2], 1.7 nM; in experiment [3], 26.3 nM; in experiment [4] it was 275 nM.
For the compound `CC1CCN(CCCOc2ccc(-c3ccc(C#N)cc3)cc2)CC1`, the Ki in experiment [1] is 9120 nM; in experiment [2] it was 13.8 nM; in experiment [3], 9.77 nM; in experiment [4] it was 427 nM.
For `CCOC(=O)N1CCN(CCCOc2ccc(-c3ccncc3)cc2)CC1`, the inhibitory constant (Ki) is 57500 nM in experiment [1] and 3720 nM in experiment [4].
On to `N#Cc1ccc(-c2ccc(OCCCN3CC4CNCC4C3)cc2)cc1` (stereo not given), for which the Ki in experiment [1] was 12300 nM; in experiment [2] it was 15.1 nM; in experiment [3] it was 66.1 nM; in experiment [4], 2880 nM.
`CCOC(=O)N1CCN(CCCOc2ccc(-c3ccc(OC(F)(F)F)cc3)cc2)CC1`: the Ki is 3630 nM in experiment [1], 240 nM in experiment [3] and 437 nM in experiment [4].
